Read-outs that look alike come from different tables or passages of the source. No end group written: not given here.
Assays:
[1] = tested on: EIAV (MA-1 strain) in equine dermal cell line ED; assay: EIAV infectivity, immunostaining of antigen-expressing cells at 40 h; format: cell-based, equine infectious anemia virus; details: for effect on the EIAV virus titer: theta defensins
[2] = tested on: HIV (pNL4-3 strain) in HeLa 37 cells; format: cell-based; details: for anti-viral activity against HIV, numbers of HIV antigen positive cells (qualitative): theta defensins preincubated 15-30 minutes with HIV, HeLa cells, 40 h; for anti-retroviral activity of carboxy-terminal peptides (qualitative): HIV, 8 μg/ml, 40 h (FIG. 3B), preliminary studies
vaccinia virus = assay: Vaccinia virus replication; format: cell-based; details: similar concentrations
herpes simplex 1 (HSV-1) = assay: HSV-1 plaque formation inhibition, virus preincubated with peptide; format: cell-based, herpes simplex virus 1
herpes simplex 2 (HSV-2) = assay: HSV-2 plaque formation inhibition, virus preincubated with peptide; format: cell-based, herpes simplex virus 2
[3] = % helicity (circular dichroism); format: physicochemical; details: for % helicity in Phos. Buffer: phosphate buffer; for % helicity in phosphate buffer + 40% TFE: phosphate buffer + 40% TFE (parenthetical value)
[4] = Systemic toxicity in mice; details: systemic dose of 5 mg/kg
[5] = mice, lung instillation of 100 μg
[6] = tested on: primary human fibroblasts
cytomegalovirus (CMV) = assay: CMV plaque formation / cytopathology in primary human fibroblasts; format: cell-based; details: for CMV plaque formation: virus preincubated 1 h at 37° C., MOI approx. 5, 14 days post infection
[7] = mouse, in vivo, 5 mg/kg
EIAV (MA-1) = assay: Time course of Ov-1 addition against EIAV, antigen immunostaining of monolayers; format: cell-based, equine infectious anemia virus; details: 10 μg/ml
Method: Studies with EIAV investigating the mode of action of the Ov class antivirals indicate that the peptides are acting early within the viral life cycle, perhaps acting on the viral particle itself. Ten μg/ml of Ov-1 was added to virus stocks of MA-1 either before, at the time of infection or various times following infection. Virus and peptide was then removed from the media 48 h post infection and the infected cultures were maintained for an additional 5 days to allow spread of any virus that is present within the culture. Monolayers were then immunostained for EIAV antigen expression.

[8] = tested on: adenovirus, a non-enveloped virus; assay: Adenovirus infectivity; format: cell-based; details: similar concentrations (6-8 μg/ml); data not shown
[9] = tested on: herpes viruses and retroviruses

GFCRCLCRRGVCRCICTR [RTD-1, rhesus monkey theta defensin]
effect on the EIAV virus titer [1]: no effect

GICRCICGRGICRCICGR [HTD-1, synthetic peptide specified from human pseudogene, human theta defensin 1]
effect on the EIAV virus titer [1]: no effect | enhancement of IC50 by circularization ([2]; oxidized, circularized versus oxidized form): about 10 fold | anti-viral activity against HIV, numbers of HIV antigen positive cells (qualitative) [2]: greatest anti-viral activity | anti-viral activity against HIV, numbers of HIV antigen positive cells (qualitative) ([2]; listed as human theta defensin-1): most effective

GVCRCLCRRGVCRCLCRR [RTD-3, rhesus monkey theta defensin]
anti-viral activity against HIV, numbers of HIV antigen positive cells (qualitative) [2]: greatest anti-viral activity | anti-viral activity against HIV, numbers of HIV antigen positive cells (qualitative) ([2]; listed as rhesus theta defensin-3): most effective

HIIKKYGPTILRIIRIIG-NH2 [Ov-6, 18 carboxyl-terminal amino acids of Ov-1]
anti-retroviral activity of carboxy-terminal peptides (qualitative) [2]: did not have appreciable anti-viral activity

IHIIKKYGPTILRIIRIIG-NH2 [Ov-5, carboxy-terminal 19-mer of Ov-1]
anti-retroviral activity of carboxy-terminal peptides (qualitative) [2]: have anti-retroviral activity

ISRLAGLLRKGGEKIGEKLKKIGQKIKNFFQKLVPQPEQ (listed as Mus musculus) [mCramp, a murine cathelicidin]
inhibitory effect on vaccinia virus replication (vaccinia virus): no inhibitory effect | infectivity of EIAV (qualitative) [1]: consistently reduced the infectivity | reduction of herpes simplex 1 replication (herpes simplex 1 (HSV-1)): approximately 75% | infectivity of HIV (qualitative) [2]: consistently reduced the infectivity | reduction of herpes simplex 2 replication (herpes simplex 2 (HSV-2)): approximately 75%

KIIHIIKKYGPTILRIIRIIG-NH2 [Ov-4, carboxy-terminal 21-mer of Ov-1]
anti-retroviral activity of carboxy-terminal peptides (qualitative) [2]: have anti-retroviral activity

KNLRRIIRKGIHIIKKYG [Ov-2 (G10)]
% helicity in Phos. Buffer [3]: 7.4% | % helicity in phosphate buffer + 40% TFE [3]: 50.4%

KNLRRIIRKIIHIIKKYG [Ov-2, KNLRRIIRKIIHIIKKYG]
adverse effects [4]: no adverse effects | inflammation, cytokine elevation, blood markers [5]: No imflammation, cytokine elevation or increase in blood markers was detected

KNLRRIIRKIIHIIKKYGPTILRIIRIIG-NH2 [Ov-1]
effect on the monolayer of primary human fibroblasts [6]: little to no effect | CMV plaque formation (cytomegalovirus (CMV); 5 μg/ml): Plaque formation and accompanying monolayer disintegration can be observed | CMV plaque formation (cytomegalovirus (CMV); 20 μg/ml): No plaque formation was detected | CMV plaque formation (qualitative) (cytomegalovirus (CMV); 14 days): reduced plaque formation | decrease of EIAV infectivity ([1]; 6-8 μg/ml peptide): greater than 100 fold | % helicity in Phos. Buffer [3]: 43.9% | % helicity in phosphate buffer + 40% TFE [3]: 97.9% | inhibition of HSV-1 plaque formation (herpes simplex 1 (HSV-1); 6 μg/ml peptide): 3-6 fold | inhibition of HSV-1 plaque formation (herpes simplex 1 (HSV-1); 18 μg/ml peptide): approximately 100 fold | decrease of HIV infectivity ([2]; 6-8 μg/ml peptide): greater than 100 fold | adverse effects [7]: no adverse effects | inhibition of HSV-2 plaque formation (herpes simplex 2 (HSV-2); 6 μg/ml peptide): 3-6 fold | inhibition of HSV-2 plaque formation (herpes simplex 2 (HSV-2); 18 μg/ml peptide): approximately 100 fold | outcome of culture (qualitative) (EIAV (MA-1); added 30 minutes or later following virus infection): resulted in infection and spread of the virus throughout the monolayer | effectiveness in inhibiting virus replication (EIAV (MA-1); added during preincubation or at the time of infection): 100% | effect on infectivity of adenovirus [8]: < 10 fold | effective LD50 for inhibiting herpes viruses and retroviruses [9]: approximately 3 μg/ml

KNLRRITRKIIHIIKKYG [Ov-2 (T7)]
% helicity in Phos. Buffer [3]: 8.0% | % helicity in phosphate buffer + 40% TFE [3]: 66.8%

LRRIIRKIIHIIKK-NH2 [Ov-3, LRRIIRKIIHIIKK-NH2]
adverse effects [4]: no adverse effects
